Data on 79 compounds can be found in the METLIN SMRT retention time set (Domingo-Almenara et al. 2019).

SMILES strings stand for the structures.

The nature of this data set: gradient 5% acetonitrile 3 min, to 50% in 2 min, to 85% in 15 min, held 3 min, 100 µL/min. As to conditions: column: Zorbax Extend-C18 2.1 x 50 mm; eluents: water / acetonitrile, 0.1% formic acid. Summed up:
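Pure standards were analyzed in mixtures of ~100 molecules using HPLC coupled to a quadrupole time-of-flight mass spectrometer, in both positive and negative ionization mode. Separation used a Zorbax Extend-C18 column (2.1 × 50 mm, 1.8 μm) at 100 μL/min, with water and acetonitrile each containing 0.1% formic acid. Dead and dwell volumes were 40 μL and 900 μL, and data were collected over 3 months. Retention time was read from computationally picked adduct peaks, each inspected manually.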
In turn, `CCOc1ccc(N2C(=O)C3N=NN(Cc4nc(-c5ccccc5Br)no4)C3C2=O)cc1` (centres undefined) showed an RP-LC retention time of 1010 s.

In turn, `Cc1ccc(Nc2cc(C)nc(N3CCN(C(=O)Nc4ccc(Cl)cc4)CC3)n2)cc1` had an RP-LC retention time of 908 s.

`Cc1ccc(S(=O)(=O)N2CCc3nc(-c4ccccc4)ncc3C2)c(C)c1` had an RP-LC retention time of 1170 s.

`O=C(N1CCN(c2ccccc2F)CC1)C1(CCO)CCN(c2ncccn2)C1` (centres undefined) showed an RP-LC retention time of 652 s.

The compound `CCC(O)c1nc2ccccc2n1CC(=O)N1CCOCC1` (centres undefined) yielded an RP-LC retention time of 566 s.

The compound `O=C(c1cccc(Cl)c1)N1CCC2(C1)NC(=O)N(Cc1ccc(F)cc1)C2=O` (centres undefined) returned an RP-LC retention time of 820 s.

`CN(CC(=O)Nc1nnc(SCc2ccc(Cl)cc2Cl)s1)S(C)(=O)=O` gave an RP-LC retention time of 874 s.

Compound `Cc1nc(Nc2ccc(F)cn2)sc1C(=O)NCc1ccc(F)cc1` showed an RP-LC retention time of 832 s.

`CCCN1CCC[C@H](c2cccc(O)c2)C1` showed an RP-LC retention time of 588 s.

The compound `CCc1ccc(-n2ncc3c(=O)n(Cc4nc(-c5ccc(F)c(Cl)c5)no4)cnc32)cc1` came in with an RP-LC retention time of 1250 s.

For the compound `CC1CN(CC(=O)N2CCN(c3ccccn3)CC2)c2ccccc2S1` (centres undefined), the RP-LC retention time was found to be 683 s.

`O=C(CN1CCC(c2nc(-c3ccccc3)no2)CC1)Nc1ccccc1Br`: the RP-LC retention time was 795 s.

For the compound `CCCCn1cnc2c(-c3ccccc3)cn(CC(=O)Nc3ccc(Cl)cc3)c2c1=O`, the RP-LC retention time worked out at 1120 s.

Regarding `O=C(c1ccncc1)N1CCCn2nc(-c3cccs3)cc2C1`, the RP-LC retention time is 642 s.

Take `Cc1ccc(NC(=O)Cn2cnc3nc(N4CCCC(C(=O)NC(C)C)C4)sc3c2=O)c(F)c1` (centres undefined): the RP-LC retention time is 701 s.

On to `CCOC(=O)CNC(=O)N1CCN(Cc2nc3cc(-c4ccccc4)ccc3o2)CC1`, for which the RP-LC retention time was 601 s.

For the compound `CCCN1CCN(c2cc(C(=O)O)c3cc(NS(=O)(=O)c4ccc(C)cc4C)ccc3n2)CC1`, the RP-LC retention time came out at 937 s.

For the compound `CCOc1ccc(S(=O)(=O)N2CCC(C(=O)NCc3csc(-c4cccs4)n3)CC2)cc1`, the RP-LC retention time is 914 s.

Consider `O=C(NCCc1c[nH]c2ccccc12)c1cc(S(=O)(=O)N2CCSCC2)ccc1Cl`, for which the RP-LC retention time worked out at 925 s.

In turn, `CC1CCCCN1CCNC(=O)CCCn1c2ccccc2c2cnn(C)c(=O)c21` (centres undefined) had an RP-LC retention time of 632 s.

The compound `O=C(Cn1nc2c(SCc3ccc(Cl)cc3)nccn2c1=O)N1CCN(c2ccccc2)CC1` came in with an RP-LC retention time of 1040 s.

Take `CCS(=O)(=O)N1CCCc2cc(C(=O)Nc3cc(OC)c(Cl)cc3OC)ccc21`: the RP-LC retention time worked out at 1040 s.

As to `CCn1cnc(S(=O)(=O)N2CCC(C(=O)Nc3ccc(OC)cc3)CC2)c1`, the RP-LC retention time turned out to be 666 s.

Regarding `CCn1c(N2CCCC(C(=O)NCc3cccc(C)c3)C2)cc(=O)n(C)c1=O` (centres undefined), the RP-LC retention time came out at 824 s.

On to `COc1ccc(-c2nnc(-c3ccc(Cl)c(S(=O)(=O)N4CCCCCC4)c3)o2)cc1`, for which the RP-LC retention time is 1210 s.

On to `CCOc1ccc2ncc(C#N)c(N3CCC(C(=O)Nc4ccccc4OCC)CC3)c2c1`, for which the RP-LC retention time stood at 984 s.

In turn, `COc1ccc(NC(=O)N2[C@H]3CC[C@@H]2c2cncnc2C3)c(C)c1` registered an RP-LC retention time of 634 s.

As to `CCN1CCN(CCNC(=O)c2ccc(CS(=O)c3cccc(Cl)c3)o2)CC1` (centres undefined), the RP-LC retention time is 576 s.

For `CC(C)(C)C(=O)N1CCCC(c2ccnc(-c3ccccc3)n2)C1` (centres undefined), the RP-LC retention time came to 1020 s.

As for `Cc1ccc2[nH]cc(CCN3CC(C(=O)N4CCCCCC4)CC3=O)c2c1` (centres undefined), the RP-LC retention time was 800 s.

For `CCCCN(Cc1nc2nc(C)cc(C)n2n1)C(=O)c1ccco1`, the RP-LC retention time is 720 s.

Regarding `CC(C)COc1cc(=O)n2c(c1C(=O)NC1CCN(C)CC1)CCCCC2`, the RP-LC retention time was 571 s.

Regarding `O=C(Cn1c(=O)c2cccn2c2ccccc21)NC1CC1`, the RP-LC retention time was found to be 688 s.

Take `O=C(Nc1ccc(Br)c(F)c1)c1cnc(-c2ccccc2)nc1-c1ccncc1`: the RP-LC retention time is 1030 s.

As to `COc1ccc(NC(=O)CSc2cc(N3CCN(c4ccccc4F)CC3)ncn2)cc1`, the RP-LC retention time is 1010 s.

Turning to `CCc1nc2cc(N3CCC(C(=O)NC(C)c4ccccn4)CC3)cnc2nc1CC` (centres undefined), the RP-LC retention time came out at 628 s.

Turning to `CC(C)N(C(=O)CSc1nc2ccccc2[nH]1)c1ccccc1`, the RP-LC retention time turned out to be 650 s.

Regarding `O=C(Cn1c(C(F)(F)F)nc2cc3c(cc21)OCCO3)NCC1CCCO1` (centres undefined), the RP-LC retention time stood at 693 s.

In turn, `Brc1ccc(-c2ccc(CNCc3cccnc3)o2)c(Br)c1` returned an RP-LC retention time of 686 s.

Compound `CC(=O)N1CCc2sc(S(=O)(=O)N3CCN(c4ccccc4Cl)CC3)cc2C1` came in with an RP-LC retention time of 945 s.

As for `CCc1nc2cc3c(cc2n1CC(=O)Nc1ccc(Br)cc1)OCCO3`, the RP-LC retention time was determined as 707 s.

The compound `COc1ccccc1NC(=O)N1CCOc2ccc(C)cc21` registered an RP-LC retention time of 1040 s.

In the case of `COc1cccc(C(=O)NC2CCN(c3cc(-c4cccs4)[nH]n3)C2)c1OC` (centres undefined), the RP-LC retention time stood at 722 s.

The compound `O=C(Cn1c(=O)c2cccn2c2ccc(F)cc21)N1CCc2ccccc2C1` yielded an RP-LC retention time of 911 s.

Consider `COc1ccc(-c2noc(Cn3ccn(-c4cccc(Cl)c4)c(=O)c3=O)n2)cc1`, for which the RP-LC retention time was 866 s.

The compound `COc1ccc(C(=O)N2c3ccccc3NC3=C(C(=O)CCC3)C2c2ccco2)cc1` (centres undefined) had an RP-LC retention time of 762 s.

For `O=C(CSc1ncc(CO)n1Cc1ccccc1)N1CCCc2ccccc21`, the RP-LC retention time stood at 684 s.

`O=C(NCc1cccc(F)c1)c1ccc2c(c1)ncn2CCN1CCCC1` showed an RP-LC retention time of 582 s.

The compound `COCCNC(=O)CN1C(=O)C2CCCCN2c2ccc(C(=O)N3CCCCC3)cc21` (centres undefined) displayed an RP-LC retention time of 696 s.

Regarding `CCOC(=O)C1CCN(S(=O)(=O)c2cccc(-c3nc(-c4ccccc4)no3)c2)CC1`, the RP-LC retention time was 1210 s.

`CCc1ccc(-c2cc(C(=O)N3CCCN(c4cc(=O)n(C(C)C)c(=O)n4C(C)C)CC3)[nH]n2)cc1`: the RP-LC retention time worked out at 946 s.

Compound `CCC(C)(C)C(=O)NC1CCN(C2=NS(=O)(=O)C(c3cccc(Cl)c3)=C2C)CC1` gave an RP-LC retention time of 915 s.

In the case of `CCn1cc(C(=O)Nc2ccc(Br)cc2)c2nn(-c3ccccc3)c(=O)c-2c1`, the RP-LC retention time is 1090 s.

As to `c1ccc(-c2nc3nccc(-c4ccccc4)n3n2)cc1`, the RP-LC retention time was found to be 907 s.

For `O=C(C1CCC1)N1CCC(n2cnnc2C2CC2)CC1`, the RP-LC retention time is 598 s.

`CCOC(=O)C(C)NC(=O)N1CCCN(C2=NS(=O)(=O)C(c3ccccc3)=C2C)CC1` (centres undefined) yielded an RP-LC retention time of 761 s.

`NNC(=O)CSc1nc2scc(-c3ccccc3)c2c(=O)n1-c1ccccc1` registered an RP-LC retention time of 838 s.

Take `CN(Cc1nc2cc(C(=O)N3CCCC3)ccc2n1C)C(=O)Nc1ccc2c(c1)OCCO2`: the RP-LC retention time was found to be 688 s.

Take `O=C(CN1CCc2[nH]c3c(F)c(Cl)ccc3c(=O)c2C1)Nc1ccc2c(c1)OCCO2`: the RP-LC retention time was 643 s.

`COc1ccc(CNS(=O)(=O)c2c(C)nn(-c3ccc(-c4ccc(C)cc4)nn3)c2C)cc1` had an RP-LC retention time of 1070 s.

Turning to `O=C(c1ccsc1)N1CCC(c2nncn2-c2ccccc2)CC1`, the RP-LC retention time came out at 630 s.

Take `Cc1cc(-c2nnc(C3CC3)o2)c(C)n1CC(=O)Nc1ccc(N2CCOCC2)cc1`: the RP-LC retention time turned out to be 700 s.

Compound `COC(=O)C1=CN(c2ccc(C)cc2)c2cc(F)ccc2S1(=O)=O` gave an RP-LC retention time of 946 s.

`Cc1ccc(CNC(=O)N2CCCC(C)(C(=O)NCc3ccc(C)cc3)C2)cc1` (centres undefined): the RP-LC retention time turned out to be 947 s.

In turn, `CCOCCCNC(=O)c1nnc(-c2ccc(S(=O)(=O)N3CCOCC3)cc2)o1` yielded an RP-LC retention time of 727 s.

Turning to `Cc1ccn2cc(C(=O)NC3CCCCC3)nc2c1`, the RP-LC retention time turned out to be 627 s.

`CCC(CC)C(=O)N1CCCC(c2nc(CNC(=O)C3CCC3)cs2)C1` (centres undefined) gave an RP-LC retention time of 777 s.

Consider `O=C(c1cn2ccnc(-c3ccc(F)cc3)c2n1)N1CCN(C(=O)c2ccco2)CC1`, for which the RP-LC retention time turned out to be 693 s.

`CN(C)S(=O)(=O)Nc1cccc(Br)c1` registered an RP-LC retention time of 898 s.

Compound `COc1ccc(N(C(=O)Nc2ccccc2OC)C2=NCCC2)cc1Cl` returned an RP-LC retention time of 1060 s.

`Cc1noc(CNC(=O)c2cc(-c3cccs3)[nH]n2)n1`: the RP-LC retention time is 641 s.

For the compound `CCOc1ccccc1NC(=O)Cn1c(=O)n(Cc2cccs2)c(=O)c2ncccc21`, the RP-LC retention time was 772 s.

`Cc1cccc(N2C(=O)CN(CCCc3ccccc3)[C@H]3CS(=O)(=O)C[C@H]32)c1` had an RP-LC retention time of 871 s.

Compound `COc1ccccc1-c1noc(Cn2c(=O)n(Cc3ccc4c(c3)OCO4)c(=O)c3sccc32)n1` had an RP-LC retention time of 956 s.

`Cc1nn(-c2ccc(Nc3ccc(NC(=O)c4ccccc4F)cc3)nn2)c(C)c1C`: the RP-LC retention time came out at 802 s.

The compound `CCn1nccc1C(=O)Nc1ccc2c(c1)OCO2` displayed an RP-LC retention time of 693 s.

For the compound `CSc1ccc(-c2noc(Cc3nnc(-c4ccc(Cl)cc4)o3)n2)cc1`, the RP-LC retention time is 1120 s.

Regarding `O=C(Cn1cccc(S(=O)(=O)N2CCOCC2)c1=O)NCc1ccc(Cl)cc1`, the RP-LC retention time was 666 s.

Regarding `O=C(CCc1c(-c2cccc(Cl)c2)nc2ccccn12)N1CCN(c2ccccc2)CC1`, the RP-LC retention time is 718 s.
